US8716242B2, “β-hairpin peptidomimetics” (priority 2009, dated 2014)
Bridge positions count the residues as written; N and C are the ends. Square brackets hold non-standard residues; d marks the D form. Peptide text beside a SMILES is read from it. * marks the point of attachment. Myristoyl = CCCCCCCCCCCCCC(=O)*; Decanoyl = CCCCCCCCCC(=O)*; Octanoyl = CCCCCCCC(=O)*; Dab = NCC[C@H](N)C(=O)O

How the values were obtained:
human CXCR4 = target: T1, human CXCR4 (Homo sapiens, UniProt P61073); assay: Ca2+-assay: CXCR4-antagonizing activity (SDF-1 induced calcium mobilization); assay type: cell-based; settings: mouse pre-B cell line 300-19 transfected with human CXCR4; SDF-1 induced Ca2+ mobilization; read-out: IC50% [nM] ± SD, CXCR4 receptor
T1 construct: expressed in transfected cells; host or cells: mouse pre-B cell line 300-19
T1 sequence (P61073 whole entry): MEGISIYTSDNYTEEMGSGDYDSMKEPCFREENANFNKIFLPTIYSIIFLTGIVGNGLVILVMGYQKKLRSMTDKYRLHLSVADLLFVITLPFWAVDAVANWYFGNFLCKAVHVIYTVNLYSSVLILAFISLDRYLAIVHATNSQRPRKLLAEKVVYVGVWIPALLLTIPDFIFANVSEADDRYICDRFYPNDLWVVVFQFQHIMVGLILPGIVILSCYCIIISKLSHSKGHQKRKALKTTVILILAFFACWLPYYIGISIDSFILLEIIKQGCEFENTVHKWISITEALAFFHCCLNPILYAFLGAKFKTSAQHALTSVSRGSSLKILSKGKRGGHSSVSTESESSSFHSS
Excerpt: 2.3. Ca^2+-Assay: CXCR4-Antagonizing Activity of the Peptides
Increases in intracellular calcium were monitored using a Flexstation 384 (Molecular Devices, Sunnyvale, Calif.) to assay the peptides for CXCR4 antagonism in a mouse pre-B cell line 300-19 stably transfected with human CXCR4 (E. Oberlin, A. Amara, F. Bachelerie, C. Bessia, J.-L. Virelizier, F. Arenzana-Seisdedos, O, Schwartz, J.-M. Heard, I. Clark-Lewis, D. F. Legler, M. Loetscher, M. Baggiolini, B. Moser, Nature 1996, 382, 833-835; M. Loetscher, T. Geiser, T. O'Reilly, R. Zwalen, M. Baggiolini, B. Moser, J. Biol. Chem. 1994, 269, 232-237; M. D'Apuuo, A. Rolink, M. Loetscher, J. A. Hoxie, I. Clark-Lewis, F. Melchors, M. Baggiolini, B. Moser, Eur. J. Immunol. 1997, 27, 1788-1793). The cells were batch loaded with the Calcium 4 Assay kit (Molecular Devices) in assay buffer (Hanks Balanced salt solution [HBSS], 20 mM HEPES, pH 7.4, 0.1% BSA) for 1 h at room temperature and labeled cells were dispensed into black well assays plates (Costar No. 3603). Calcium mobilization induced by stromal-derived factor-1 (SDF-1) was measured in the Flexstation 384 (excitation: 485 nm; emission: 525 nm) for 90 seconds. Antagonist activity of peptides was determined by spiking the cells with compounds prior to SDF-1 addition. Dose response curves (compound concentration versus % maximum response for SDF-1) were determined for each antagonist and IC50 values were calculated by fitting the data to a four parameter logistic equation using SoftmaxPro 4.8 (Molecular Devices).

[1] = Cytotoxicity, MTT reduction assay, HELA cells; assay type: cell-based; settings: human, HELA cells (Acc57), 12.5-50 μM
Method in brief: (§1)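 HELA (4000/well) and COS-7 (3400/well) cells were grown 24 h, then exposed 48 h at 37° C to peptides at 12.5, 25 and 50 μM in triplicate. MTT reduction read at 595 nm; growth % relative to time-zero, and GI50 interpolated by trend line.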

[2] = Cytotoxicity, MTT reduction assay, COS-7 cells; assay type: cell-based; settings: African green monkey, COS-7 cells (CRL-1651), 12.5-50 μM
Method in brief: as §1

[3] = test system: human red blood cells (hRBC); assay: Hemolysis of human red blood cells; assay type: cell-based; settings: 20% hRBC, 1 h, 37° C.
Description: The peptides were tested for their hemolytic activity against human red blood cells (hRBC). Fresh hRBC were washed three times with phosphate buffered saline (PBS) and centrifuged for 10 min at 2000×g. Compounds (100 μM) were incubated with 20% hRBC (v/v) for 1 h at 37° C. and shaking at 300 rpm. The final erythrocyte concentration was approximately 0.9×10^9 cells/mL. A value of 0% and 100% cell lyses, respectively, was determined by incubation of hRBC in the presence of PBS containing 0.001% acetic acid and 2.5% Triton X-100 in H2O, respectively. The samples were centrifuged, the supernatants were 8-fold diluted in PBS buffer and the optical densities (OD) were measured at 540 nm. The 100% lyses value (OD540H2O) gave an OD540 of approximately 0.5-1.0.
(§2) Percent hemolysis was calculated as follows: (OD540peptide/OD540H2O)×100%. 2.6. Plasma Stability

[4] = Plasma stability in human plasma; assay type: in vitro ADME
Method in brief: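 Peptides (1 mM DMSO/H2O stock) were spiked into human or mouse plasma in triplicate and incubated at 37 °C, sampling from 0 to 1440 min. Samples were quenched in formic acid/acetonitrile and analysed by LC/MS MRM. Remaining percent of t=0 was calculated and T1/2 derived by trend fitting.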

[5] = Plasma stability in mouse plasma; assay type: in vitro ADME; settings: for mouse pl. T1/2 / half-life at 10 μM: up to 1440 min; for half-life at 10 μM: read-out: mouse pl. T1/2
Description: as §2
The stability of the peptides in human and mouse plasma was determined by applying the following method: 346.5 μL/deep well of freshly thawed human plasma (Basler Blutspendedienst) and mouse plasma (Harlan Sera-Lab, UK), respectively, were spiked with 3.5 μL/well of compound dissolved in DMSO/H2O ([…] [v/v], 1 mM, triplicate) and incubated at 37° C. At t=0, 15, 30, 60, 120, 240 and 1440 min aliquots of 50 μL were transferred to filtration plate wells containing 150 μL/well of 2% formic acid in acetonitrile. Following shaking for 2 min the occurred suspensions were filtrated by vacuum and 50 μL of each filtrate was mixed with 100 μL of 1% formic acid in H2O. After transfer to a propylene microtiter plate, the filtrates were analyzed by LC/MS as follows: Column: Waters, XBridge C18, mobile phases: (A) water+0.1% formic acid and (B) acetonitrile/water, 95/5 (v/v)+0.1% formic acid, gradient: 5%-100% (B) in 2 minutes, electrospray ionization, MRM detection (triple quadrupole). The peak areas were determined and triplicate values are averaged. The stability is expressed in percent of the initial value at t=0. (tx/t0×100). By using the TREND function of EXCEL (Microsoft Office 2003) T1/2 were determined.

[6] = human plasma, 37° C., 1440 min, read-out: human pl. cpd left at 1440 min
[7] = human plasma, 37° C., up to 1440 min
[8] = mouse plasma, 37° C., 1440 min, read-out: mouse pl. cpd left at 1440 min

Compound | IC50 (human CXCR4) | GI50 at 48 h [1] | GI50 at 48 h [2] | Hemolysis at 100 μM [3] | remaining at 24 h, 10 μM [4, 6] | human pl. T1/2 [4, 7] | remaining at 24 h, 10 μM [5, 8] | mouse pl. T1/2 ([5]; mouse plasma, 37° C.) | half-life at 10 μM ([5]; mouse plasma, 37° C.) | half-life at 10 μM ([4]; human plasma, 37° C., up to 1440 min, read-out: human pl. T1/2) | remaining at 24 h, 10 μM ([4]; human, plasma) | remaining at 24 h, 10 μM ([5]; mouse, plasma)
CCCCCCCCCC(=O)NCC[C@@H]1NC(=O)[C@H](Cc2ccc(O)cc2)NC(=O)[C@@H]2CSSC[C@H](NC(=O)[C@H](C)NC(=O)[C@H](Cc3c[nH]cn3)NC(=O)[C@H](Cc3ccc(O)cc3)NC(=O)[C@@H]3CCCN3C(=O)[C@H]3CCCN3C(=O)[C@H](CCCCN)NC1=O)C(=O)N[C@@H](CCCNC(=N)N)C(=O)N[C@@H](C)C(=O)N1CCC[C@@H]1C(=O)N[C@@H](CCN)C(=O)N[C@@H](CCCNC(=N)N)C(=O)N[C@@H](Cc1ccc(O)cc1)C(=O)N2 [Ex. 10] (cyclo(YHACRA[dP][Dab]RYCY[Dab](Decanoyl)K[dP]P); disulfide 4-11) | 8.1 ± 0.9 nM | > 50 µM | > 50 µM | 1.0% | 85% | 24 h | 63% | 24 h |  |  |  | 
CCCCCCCC(=O)NCCCC[C@@H]1NC(=O)[C@H](Cc2ccc(O)cc2)NC(=O)[C@@H]2CSSC[C@H](NC(=O)[C@H](Cc3ccc(O)cc3)NC(=O)[C@H](Cc3c[nH]cn3)NC(=O)[C@H](Cc3ccc(O)cc3)NC(=O)[C@@H]3CCCN3C(=O)[C@H]3CCCN3C(=O)[C@H](CCCCN)NC1=O)C(=O)N[C@@H](CO)C(=O)N[C@@H](C)C(=O)N1CCC[C@@H]1C(=O)N[C@@H](CCN)C(=O)N[C@@H](CCCNC(=N)N)C(=O)N[C@@H](Cc1ccc(O)cc1)C(=O)N2 [Ex. 12] (cyclo(YHYCSA[dP][Dab]RYCYK(Octanoyl)K[dP]P); disulfide 4-11) | 1.8 ± 1 nM | > 50 µM | > 50 µM | 0.2% | 88% | 24 h | 46% |  | 7 h |  |  | 
CCCCCCCC(=O)NCCCC[C@@H]1NC(=O)[C@H](Cc2ccc(O)cc2)NC(=O)[C@@H]2CSSC[C@H](NC(=O)[C@H](Cc3ccc(O)cc3)NC(=O)[C@H](Cc3c[nH]cn3)NC(=O)[C@H](Cc3ccc(O)cc3)NC(=O)[C@@H]3CCCN3C(=O)[C@@H](Cc3ccc(O)cc3)NC(=O)[C@H](CCCCN)NC1=O)C(=O)N[C@@H](CO)C(=O)N[C@@H](C)C(=O)N1CCC[C@@H]1C(=O)N[C@@H](CCN)C(=O)N[C@@H](CCCNC(=N)N)C(=O)N[C@@H](Cc1ccc(O)cc1)C(=O)N2 [Ex. 13] (cyclo(A[dP][Dab]RYCYK(Octanoyl)K[dY]PYHYCS); disulfide 6-15) | 6.3 ± 2.7 nM | > 50 µM | > 50 µM | 1.2% | 100% | 24 h | 72% |  | 22.4 h |  |  | 
CCCCCCCCCC(=O)NCCCC[C@@H]1NC(=O)[C@H](Cc2ccc(O)cc2)NC(=O)[C@@H]2CSSC[C@H](NC(=O)[C@H]([C@@H](C)O)NC(=O)[C@H](Cc3c[nH]cn3)NC(=O)[C@H](Cc3ccc(O)cc3)NC(=O)[C@@H]3CCCN3C(=O)[C@H]3CCCN3C(=O)[C@H](CCCCN)NC1=O)C(=O)N[C@@H](CCCNC(=N)N)C(=O)N[C@@H](C)C(=O)N[C@H](Cc1ccc(O)cc1)C(=O)N[C@@H](CCN)C(=O)N[C@@H](CCCNC(=N)N)C(=O)N[C@@H](Cc1ccc(O)cc1)C(=O)N2 [Ex. 14] (cyclo(YHTCRA[dY][Dab]RYCYK(Decanoyl)K[dP]P); disulfide 4-11) | 40.8 ± 12 nM | > 50 µM | > 50 µM | 0.6% | 91% | 24 h | 23% |  | 9.42 h |  |  | 
CCCCCCCCCC(=O)NCCCC[C@@H]1NC(=O)[C@H](Cc2ccc(O)cc2)NC(=O)[C@@H]2CSSC[C@H](NC(=O)[C@H]([C@@H](C)O)NC(=O)[C@H](Cc3c[nH]cn3)NC(=O)[C@H](Cc3ccc(O)cc3)NC(=O)[C@@H]3CCCN3C(=O)[C@@H](Cc3ccc(O)cc3)NC(=O)[C@H](CCCCN)NC1=O)C(=O)N[C@@H](CCCNC(=N)N)C(=O)N[C@@H](C)C(=O)N1CCC[C@@H]1C(=O)N[C@@H](CCN)C(=O)N[C@@H](CCCNC(=N)N)C(=O)N[C@@H](Cc1ccc(O)cc1)C(=O)N2 [Ex. 16] (cyclo(YHTCRA[dP][Dab]RYCYK(Decanoyl)K[dY]P); disulfide 4-11) | 18.2 ± 11 nM | > 50 µM | > 50 µM | 0.5% |  |  |  |  | 10.3 h | 19.9 h | 48% | 35%
CCCCCCCCCCCCCC(=O)NCCCC[C@@H]1NC(=O)[C@H](Cc2ccc(O)cc2)NC(=O)[C@@H]2CSSC[C@H](NC(=O)[C@H](Cc3ccc(O)cc3)NC(=O)[C@H](Cc3c[nH]cn3)NC(=O)[C@H](Cc3ccc(O)cc3)NC(=O)[C@@H]3CCCN3C(=O)[C@H]3CCCN3C(=O)[C@H](CCCCN)NC1=O)C(=O)N[C@@H](CO)C(=O)N[C@@H](C)C(=O)N1CCC[C@@H]1C(=O)N[C@@H](CCN)C(=O)N[C@@H](CCCNC(=N)N)C(=O)N[C@@H](Cc1ccc(O)cc1)C(=O)N2 [Ex. 18] (cyclo(YHYCSA[dP][Dab]RYCYK(Myristoyl)K[dP]P); disulfide 4-11) | 15.7 ± 3.9 nM | > 25 µM | > 50 µM | 9.2% | 71% | 24 h | 78% | 24 h |  |  |  | 
CCCCCCCCCCCCCC(=O)NCCCC[C@@H]1NC(=O)[C@H](Cc2ccc(O)cc2)NC(=O)[C@@H]2CSSC[C@H](NC(=O)[C@H](C)NC(=O)[C@H](Cc3c[nH]cn3)NC(=O)[C@H](Cc3ccc(O)cc3)NC(=O)[C@@H]3CCCN3C(=O)[C@H]3CCCN3C(=O)[C@H](CCCCN)NC1=O)C(=O)N[C@@H](CCCNC(=N)N)C(=O)N[C@@H](C)C(=O)N1CCC[C@@H]1C(=O)N[C@@H](CCN)C(=O)N[C@@H](CCCNC(=N)N)C(=O)N[C@@H](Cc1ccc(O)cc1)C(=O)N2 [Ex. 19] (cyclo(YHACRA[dP][Dab]RYCYK(Myristoyl)K[dP]P); disulfide 4-11) | 9.1 ± 4.2 nM | > 32 µM | > 50 µM | 1.2% | 99% | 24 h | 76% | 24 h |  |  |  | 
